Experimental data from patent EP1891105B1, “OXYNTOMODULIN ANALOGUES AND THEIR EFFECTS ON FEEDING BEHAVIOUR” (Imperial Innovations Limited, priority 2005, dated 2012).
Entries after “also recorded” stand apart in the source; their conditions may differ. Non-standard residues stand in square brackets, D forms with d. No end group written: not given here. *: point of attachment. Lauroyl = CCCCCCCCCCCC(=O)*

What was measured:
[1] = Food intake of fasted mice after injection of peptide; assay type: in vivo, C57BL/6 mice
Procedure: Animals: All animal procedures were approved by the British Home Office Animals (Scientific Procedures) Act 1986 (Project License number 70/5516). Male C57BL/6 mice and male Wistar rats were maintained in individual cages under controlled temperature (21-23 °C) with ad libitum access to standard chow (RM1 diet, SDS Ltd, Witham, Essex, UK) and to water. The light cycle was 14 hours light and 10 hours dark with 'dawn' at 07:00, lights full on at 07:30, 'dusk' at 21:00 with lights off at 21:30. These times were fixed in the animal facility.
All animals were handled almost daily for on average nine days prior to the first study. During the acclimatization period, each animal received two saline injections at least two days apart in order to further acclimatize to the procedure on the study days.
Intra-peritoneal (IP) injections: IP injections were administered to mice via a 0.5 ml syringe with a 29-gauge needle (maximum injection volume 0.1 ml). Maximum volume administered IP was 0.1 ml.
Study protocol: C57BL/6 mice (20-35 g) were injected with the peptide under investigation following a 20-hour fast Wistar rats were injected following a 24-hour fast. A pre-weighed quantity of chow was presented immediately after injection. The remaining food was measured at regular time intervals (e.g. 1, 2, 3,4, 6, 8, 24 and 48 hours following injection) and food intake calculated.

[2] = humans; intravenously infused; cited from earlier work
[3] = humans; 1.8 mg sc three times daily for 28 days; cited from earlier work
[4] = rats, cited from earlier work
[5] = Example 1, 2700 nmol/kg, intervals 0-32 h after injection, vs saline and oxm

With “D-His1,Ala2,Lys33,Ala38,Ala39,Lys40-lauroyl-oxm(ex15-23)(ex27-33) ([dH]AQGTFTSDYSKYLEEEAVRLFIQWLKNGGPSKNNIAAAK(Lauroyl))” the food intake ([1]; Example 54, 10 nmol/kg) was “exception”.

For “DHis2-Ser2-Asp3-oxm(ex15-23)(ex27-33)-Lys33-Ala38,39-Glu40,41-Lys42-Lauroyl ([dH]SDGTFTSDYSKYLEEEAVRLFIQWLKNGGPSKNNIAAAEEK(Lauroyl)) [23/104]”, the food intake ([1]; Example 57, 6 or 20 nmol/kg) was “markedly decreased cumulative food intake in comparison to the saline control”.

In the case of “Oxyntomodulin (HSQGTFTSDYSKYLDSRRAQDFVQWLMNTKRNRNNIA) [oxm, 37 amino acid peptide member of the glucagon superfamily]”, the food intake ([1]; Example 5, 2700nmol/kg, 0-4 h, vs oxm and saline) is reported as “reduced food intake as expected”, the food intake ([1]; Example 7, 1000 nmol/kg, 0-24 h) is reported as “did not quite reach statistical significance” and the “Multiples of food inhibition Factor” value ([1]; Example 9, food intake during the first hour after injection, activity relative to oxm (1400 nmol/kg)) is reported as 1. The appetite [2] was “effective appetite suppressant”, the body weight [3] was “significant reduction of body weight” and the weight gain ([4]; chronic central administration) was “reduced weight gain”. For the same molecule, the “refeeding after a fast” value ([4]; intracerebroventricular and injection into paraventricular and arcuate nuclei) was “inhibits refeeding after a fast” and the “body weight gain and adiposity” value ([4]; twice daily peripheral injections) was “reduced body weight gain and adiposity”.

For “oxm(xx15-18): human oxm with 4 amino acids at positions 15-18 replaced by substitute sequence (HSQGTFTSDYSKYLEEEAAQDFVQWLMNTKRNRNNIA)”, the food intake [1, 5] was “increased and prolonged inhibition of food intake compared to both saline and oxm”.

In the case of “oxm(xx15-21): human oxm with residues 15-21 replaced by corresponding exendin-4 residues (HSQGTFTSDYSKYLEEEAVRLFVQWLMNTKRNRNNIA)”, the food intake [1, 5] is reported as “greater and more prolonged appetite suppressant effect”.

B1: oxm(xx15-24): human oxm with residues 15-24 replaced by corresponding exendin-4 residues (peptide)
chain 1: HSQGTFTSDYSKYLEEEAVRLFIEWLMNTKRNRNNIA
chain 2: HSQGTFTSDYSKYLEEEAVRLFIEWLMNTKRNRNNIA
In the case of B1, the food intake [1, 5] is reported as “greater and more prolonged appetite suppressant effect; also recorded: more potent effect on feeding than oxm”, the food intake ([1]; Example 2, 300 nmol/kg, 0-24 h, vs exendin 4 and saline) is reported as “reduces food intake only slightly less than exendin over the first 8 hours post-injection” and the food intake ([1]; Example 27, 100 nmol/kg) is reported as “the most effective”.

B2: oxm(xx27-33): oxm with residues 27 to 33 replaced by the sequence Lys Asn Gly Gly Pro Ser Ser (peptide)
chain 1: HSQGTFTSDYSKYLDSRRAQDFVQWLKNGGPSSNNIA
chain 2: HSQGTFTSDYSKYLDSRRAQDFVQWLKNGGPSSNNIA
In the case of B2, the food intake ([1]; Example 3, 2700 nmol/kg, 0-24 h, vs oxm and saline) is reported as “increased and prolonged inhibition of food intake compared to both saline and oxm”.
